Source: patent US5900476A, “Therapeutic domains of van Willebrand factor” (The Scripps Research Institute, priority 1992, dated 1999)

Experiments:
[1] = test system: GPIbα; assay: Inhibition of 125I LJ-Ib1 antibody binding to platelets, no modulator
Procedure: (§1) To assess the inhibitory activity of p5E extracts on antibody binding, a concentration of LJ-Ib1 was first selected which would, in the absence of p5E extracts, provide half-maximal binding.
(§2) LJ-Ib1 was iodinated by the procedure of Fraker, D.J. et al., Biochem. Biophys. Res. Commun., 80, 849-857 (1978) using I^125 from Amersham, Arlington Heights, IL and Iodogen (Pierce Chemical Co., Rockford, IL). Washed platelets were prepared by the albumin density gradient technique of Walsh, et al., Br. J. Haematol., 36, 281-298 (1977), and used at a count of 1 x 10^8 /ml.
The p5E polypeptide extract was purified according to the procedure of Example 4 including final purification of the urea-solubilized inclusion body preparation by dialysis against 6.0M guanidine and urea solutions followed by Q-Sepharose® chromatography.
To evaluate binding, platelets were incubated for 30 minutes at 22-25° C. with LJ-Ib1 (10 μg/ml) and concentrations of purified p5E protein (.002-10.0 μMolar) as indicated in FIGS. 3A and 3B. Inhibition was plotted in the presence of 2 μg/ml botrocetin, Sigma Chemical Co., St. Louis, MO, (FIG. 3B) and in the absence of botrocetin (FIG. 3A).
Less than 5 percent of the ^125 I label bound to the platelets was contributed by labelled substances other than LJ-Ib1 as determined by binding competition experiments in the presence of a 100 fold excess of unlabelled LJ-Ib1. Background labelling was subtracted from data points. Binding of ^125 I LJ-Ib1 was expressed as a percentage of a control assay lacking recombinant polypeptides. […] It is known that botrocetin induces in circulating multisubunit von Willebrand factor and single subunits thereof a conformational change which enhances or permits binding to the GPIbα receptor. […] Structural similarity is therefore indicated.
The interaction the mutant molecules with GPIbα was evaluated using an assay (Sugimoto, M. et al., Biochemistry, 30, 5202-5209 (1991)) based on inhibition of binding of antibody LJ-Ib1 to platelets. The corresponding IC50 values (concentration of fragment required to inhibit 50% of antibody binding) are presented in Table 2 (no modulator) and Table 3 (botrocetin added).
The interaction of rvWF^441-733 with GPIbα was measured by the ability of rvWF^441-733 to inhibit the binding of an anti-GPIbα monoclonal antibody, LJ-IB1, to platelets. This assay, previously described in detail, (Sugimoto, M. et al., Biochemistry, 30, 5202-5208 (1991)) offers the advantage that the binding of LJ-Ib1, unlike that of native vWF, is not dependent on the presence of modulators, like ristocetin or botrocetin. Binding by vWF^441-733 to GPIbα is thought to block the region of GPIbα to which LJ-Ib1 binds.

[2] = test system: NMC-4 antibody; assay: Immunoblotting with conformation-dependent monoclonal antibody NMC-4; assay type: binding, murine
Procedure: Polypeptides expressed from p7E, p7D and pJD18 were further characterized by immunoblotting ("Western blotting") according to a standard procedure Burnett et al., A. Anal. Biochem., 112, 195-203, (1981) and as recommended by reagent suppliers. Samples containing approximately 10 μg of protein from the urea-solubilized and dialyzed inclusion body extracts of host cells (containing p7E, p7D and pJD18 plasmids) were subjected to electrophoresis on 10% polyacrylamide gels, Laemli, U.K. Nature, 227, 680-685 (1970), in the presence of 2% concentration of sodium dodecyl sulfate.
The proteins were blotted and immobilized onto a nitrocellulose sheet (Schleicher and Schuell, Keene, NH) and the pattern was then visualized using immunoreactivity.
The secondary antibody (^125 I-rabbit anti-mouse IgG), labelled by the method of Fraker, P.J. et al. Biochem. Biophys. Res. Commun., 80, 849-857 (1978)), was incubated for 60 minutes at 25° C. on the nitrocellulose sheet. After rinsing, the sheet was developed by autoradiography.
NMC-4 however, has as its epitope the domain of the von Willebrand factor subunit which contains the glycoprotein Ib binding site. […] Id. at 17903. […]

[3] = test system: GPIbα; assay: Inhibition of 125I LJ-Ib1 antibody binding to platelets in the presence of botrocetin; conditions: botrocetin 2 μg/ml; LJ-Ib1 10 μg/ml; purified p5E protein; read-out: 50% inhibition of 125I LJ-Ib1 binding to platelets
Procedure: as §1
as §2, with “/ml. […]” for “/ml.”
Less than 5 percent of the ^125 I label bound to the platelets was contributed by labelled substances other than LJ-Ib1 as determined by binding competition experiments in the presence of a 100 fold excess of unlabelled LJ-Ib1. […] Binding of ^125 I LJ-Ib1 was expressed as a percentage of a control assay lacking recombinant polypeptides. […]
The interaction the mutant molecules with GPIbα was evaluated using an assay (Sugimoto, M. et al., Biochemistry, 30, 5202-5209 (1991)) based on inhibition of binding of antibody LJ-Ib1 to platelets. […]
The interaction of rvWF^441-733 with GPIbα was measured by the ability of rvWF^441-733 to inhibit the binding of an anti-GPIbα monoclonal antibody, LJ-IB1, to platelets. […]

[4] = oxidized form (Cys509-Cys695 bond), absence of modulators, range of results over n experiments, read-out: (Oxidized) IC50
[5] = reduced/alkylated form, absence of modulators, range of results over n experiments, read-out: (Reduced/alkylated) IC

| Substance | IC50 [1, 4] [nM] | Ability to inhibit LJ-Ib1 binding to platelets / affinity for GPIbα relative to rvWF^441-733 ([1]; reduced and alkylated form, Table 2) | IC50 [1, 5] [nM] | Increase in binding affinity for NMC-4 compared to cysteine-free p7E species ([2]; nonreducing conditions, single chain species, immunoblot) [fold] | Affinity for NMC-4 after electrophoresis under reducing conditions ([2]; reducing conditions, 100 mM DTT) | IC50 of reduced and alkylated form relative to oxidized form ([1]; absence of modulator, FIG. 3A) | IC50 ([1]; without botrocetin, LJ-Ib1 10 μg/ml, purified p5E protein, read-out: Fifty percent inhibition of 125I LJ-Ib1 binding to platelets) [nM] | IC50 [3] [nM] |
| --- | --- | --- | --- | --- | --- | --- | --- | --- |
| rvWF^441-696: C-terminal deletion fragment of the p5E vWF polypeptide terminating at residue 696 | 1000 to 1300 | greatly reduced ability to inhibit LJ-Ib1 binding to platelets | > 4000 | – | – | – | – | – |
| rvWF^441-700: C-terminal deletion fragment of the p5E vWF polypeptide terminating at residue 700 | 2000 to 3100 | – | 500 | – | – | – | – | – |
| rvWF^441-704: C-terminal deletion fragment of the p5E vWF polypeptide terminating at residue 704 | 2600 to 3200 | – | 30 to 40 | – | – | – | – | – |
| rvWF^441-733: recombinant vWF residue 441-733 fragment from p5E; Cys 459, 462, 464, 471, 474 replaced by Gly; Cys509-Cys695 retained; oxidized or reduced/alkylated | 3000 to 5000 | – | 70 to 300 | ~120 | remarkably decreased affinity for NMC-4 | more than ten fold lower | 10000 | < 100 |
